# Laboratory results from patent US20150038435A1, “N-TERMINALLY MODIFIED OLIGOPEPTIDES AND USES THEREOF” (Novo Nordisk A/S, priority 2012, published 2015).
# Non-standard residues stand in square brackets, D forms with d. Residues, ends and D or L forms follow the SMILES beside them. *: point of attachment. Lauroyl = CCCCCCCCCCCC(=O)*
# Assays:
# [1] = Rat PK following intraintestinal injection; format: in vivo; conditions: of insulin, 60 nmol/kg intraintestinal, Composition 3: 3% compound, propylene glycol, diglycerol caprylate, Tween 20
# Protocol: Anaesthetized rats were dosed intraintestinally (into jejunum) with reference compounds and N-terminally acylated peptide or oligopeptides of the invention. Plasma concentrations of the employed compounds as well as changes in blood glucose were measured at specified intervals for 4 hours or more post-dosing. Pharmacokinetic parameters were subsequently calculated using WinNonLin Professional (Pharsight Inc., Mountain View, Calif., USA).
# The compositions for the intraintestinal injection model were prepared for example according to the following composition (in weight %):
# The anesthetized rat was placed on a homeothermic blanket stabilized at 37° C. A 20 cm polyethylene catheter mounted a 1-ml syringe was filled with insulin composition or vehicle. A 4-5 cm midline incision was made in the abdominal wall. […]
# Blood samples for the determination of whole blood glucose concentrations were collected in heparinised 10 μl capillary tubes by puncture of the capillary vessels in the tail tip. Blood glucose concentrations were measured after dilution in 500 μl analysis buffer by the glucose oxidase method using a Biosen autoanalyzer (EKF Diagnostic Gmbh, Germany). […]
# Samples were collected for determination of the plasma insulin concentration. […] Plasma concentrations of the insulin analogues were measured in a immunoassay. […]
# [2] = test system: GI juice; test: Inhibition of GI juice degradation of insulin analogue and GLP-1 analogue; format: biochemical; conditions: compound 1 mM, rat GI juice
# Protocol: 96 well plates were coated by incubating with 0.4% Bovine serum albumin (BSA) solution for minimum of 60 min. […] 1% TFA), 30 μl of a substrate (100 μM insulin analogue or GLP-1 analogue in buffer) and 30 μl of N-terminally acylated peptide or oligopeptide of the invention (10 mM) were added. The plates were pre-incubated (before adding GI juice) for 60 min at 37° C. After addition of 30 μl of GI juice (10-times diluted in buffer), the plates were incubated for 60 min/37° C. on shaker. […] 1% TFA and spun down in plates (4500 rpm for 10 min). Samples were diluted 5 times with the buffer prior to LC-MS analysis. Standard samples (0.1, 0.5, 1.0, 5.0, 10.0 μM) were prepared and treated as the samples. Standard curve was analysed both at the beginning and the end of the sequence. Two replicates of each tested conditions were included. Ion suppression was assessed by analyzing a standard at 1 μM and at 10 μM with 1 mM inhibitor present. Intact insulin or GLP-1 analoues were determined at each sample. The results were plotted against the incubation time. […] The half-lives were expressed relative to the half-live of the insulin or GLP-1 analogue without inhibitor present by dividing the half-lives obtained in the presence of inhibitor with those obtained in the absence of inhibitors. GI juice was prepared from male Sprague Dawley rats (200-250 g) by excising approximately 20 cm piece of mid jejunum and rinsing the inside with 2.5 ml 0.9% sodium chloride solution. The sodium chloride solution was collected in a centrifuge tube, pooled from all rats (20) and centrifuged at 4500 rpm./10 min/4° C. The supernatant was aliquoted in tubes and stored at −80° C.
# A14E, B25H, B29K(N(eps)Octadecanedioyl-γGlu-OEG-OEG), desB30 human insulin and N-epsilon26-[2-(2-{2-[2-(2-{2-[(S)-4-Carboxy-4-(17-carboxyheptadecanoylamino)-butyrylamino]ethoxy}ethoxy)acetylamino]ethoxy}ethoxy)acetyl][Aib8,Arg34]GLP-1-(7-37) were used as standards in this assay.
# For experiments repeated more than two times, standard deviation is given
# [3] = target: Chymotrypsin; test: Inhibition of insulin degradation, HPLC assay (Example 201); format: biochemical; conditions: for Ki: substrate A14E, B25H, B29K(N(eps)Octadecanedioyl-γGlu-OEG-OEG), desB30 human insulin
# Protocol: Degradation using duodenum lumen enzymes (prepared by filtration of duodenum lumen content) from SPD rats.
# Each HPLC vial contained Dulbecco's phosphate buffer saline (DPBS, Invitrogen catalogue #14190-094), A14E, B25H, B29K(N(eps)Octadecanedioyl-γGlu-OEG-OEG), desB30 human insulin, N-terminally acylated peptide or oligopeptide of the invention and enzyme (chymotrypsin, trypsin, elastase or duodenum lumen enzymes).
# The assay was performed in an HPLC autosampler equilibrated at 37° C., at specified time points, aliquots were injected directly onto an HPLC column and the amount of the intact A14E, B25H, B29K(N(eps)Octadecanedioyl-γGlu-OEG-OEG), desB30 human insulin was determined. Degradation half life was determined by exponential fitting of the data (for example, single exponential decay, 2 parameters, Sigma Plot version 11, Systat Software) and normalized to half time determined for the reference insulins, or human insulin in each assay. […] This was done by plotting the half life achieved with different concentrations of the N-terminally acylated peptide or oligopeptides of the invention as a function of their concentrations and fitting the experimental results using, for example, sigmoidal logistic regression (2 parameters, Sigma Plot v 11). Inhibition constants for the interaction between the N-terminally acylated peptide or oligopeptides of the invention and proteolytic enzymes were also obtained by performing the assay described above with varying concentrations of the inhibitor and substrate and analyzing the results, for example, by double reciprocal transformation as known to the person skilled in the art and described for example in Hubalek, F. et al., J. Med. Chem. 47, 1760-1766 (2004). Other algorithms known to the person skilled in the art may also be used to determine inhibition constants from the results.
SMILES,Bioavailability [1] [%],Half Life fold increase (over solution w/o N-terminally acylated (oligo)peptide) [2],Half Life of insulin analogue ([2]; 37° C.) [min],"kind of enzyme inhibition ([3]; chymotrypsin, insulin analogue as substrate)",Ki ([3]; chymotrypsin) [µM],Ki [3] [µM]
"CCCCCCCCCCCC(=O)N[C@H](C)C(=O)N[C@H](C)C(=O)N1CCC[C@@H]1C(=O)N[C@H](Cc1ccccc1)C(=O)O [Example 1, N-dodecanoyl-DAla-DAla-DPro-DPhe-OH] (Lauroyl-[dA][dA][dP][dF]-OH)",4.5 ± 2.7,5.0,13.0,,,
"CCCCCCCCCCCC(=O)N[C@@H](C)C(=O)N[C@@H](C)C(=O)N1CCC[C@H]1C(=O)N[C@@H](Cc1ccccc1)C(=O)O [Example 34, N-dodecanoyl-Ala-Ala-Pro-Phe-OH] (Lauroyl-AAPF-OH)",,,,mixed inhibition,~15,15
